According to publication PMC11111408, “Concurrent inhibition of oncogenic and wild-type RAS-GTP for cancer therapy” (Nature, 2024):
Several values for one entry are separate records, joined by “and”; a condition that tells them apart may be missing. Identical values can stand only once.

Key:
Capan-1 cells = assay: Cell proliferation (CTG); assay type: cell-based; conditions: Homo sapiens; Capan-1, CTG; (95% CI)
Description: Alternatively, cells were seeded in round-bottom ultra-low attachment 96-well plates, centrifuged at 1,000 rpm for 10 min to pellet the cells, and incubated overnight or up to 72 h to allow for 3D spheroid formation. […] Cell viability was determined by CellTiter-Glo 2.0 reagent (2D CTG) (Promega, G9243) or 3D CellTiter-Glo reagent (3D CTG) (Promega, G9683) according to the manufacturer’s protocols. Luminescence was detected using a SpectraMax M5 Plate Reader (Molecular Devices) of Perkin Elmer Enspire. Luminescence signal was normalized to vehicle-treated wells (normalized signal (%) = (luminescence (treated)/mean luminescence (vehicle)) × 100%). […] Data were plotted as log [inhibitor (M)], and a four-parameter sigmoidal concentration response model was fitted to the data to calculate EC50. […] Pa16C MEK1 mutant cells were evaluated by live-cell counting using Calcein AM and a SpectraMax i3X multi-mode detection platform (Molecular Devices). Growth percentages were calculated by normalizing the treated cell counts to their respective untreated cell counts.

KRAS–RALGDS = biological target: T1, KRAS–RALGDS (Homo sapiens, UniProt P01116, G12V); assay: Cellular nano-BRET, full length RALGDS binding to KRAS G12C, G12D, G12V; assay type: cell-based; conditions: KRAS G12V, in the presence of CYPA, single replicates
T1 construct: expressed in transfected cells; host or cells: U2OS

KRAS WT = KRAS WT (Homo sapiens, UniProt P01116+P62937); assay: RAS binding affinity of compound-bound CYPA (Kd2), SPR; parameters: made in house; host or cells: BL21(DE3) Escherichia coli; conditions: steady state SPR, (95% CI)

CCn1c(-c2cc(N3CCN(C4CC4)CC3)cnc2[C@H](C)OC)c2c3cc(ccc31)-c1csc(n1)C[C@H](NC(=O)[C@H]1[C@@H]3COC[C@@H]31)C(=O)N1CCC[C@H](N1)C(=O)OCC(C)(C)C2 [RMC-7977]
EC50 (Capan-1 cells): 2.2 nM
Cellular nano-BRET of RALGDS (full-length) binding to KRAS (KRAS–RALGDS; RMC-7977 4.115 nM): 30.1314 and 27.6913 and 29.7303 and 27.1744
Cellular nano-BRET of RALGDS (full-length) binding to KRAS (KRAS–RALGDS; RMC-7977 12.346 nM): 22.418 and 20.7842 and 21.8208 and 20.4059 and 22.2654 and 20.6652
Cellular nano-BRET of RALGDS (full-length) binding to KRAS (KRAS–RALGDS; RMC-7977 37.037 nM): 15.6693 and 15.6351 and 15.326 and 16.1305 and 15.8324 and 15.892
Cellular nano-BRET of RALGDS (full-length) binding to KRAS (KRAS–RALGDS; RMC-7977 111.111 nM): 12.652 and 12.1384 and 12.5044 and 12.7423 and 12.6511 and 12.657
Cellular nano-BRET of RALGDS (full-length) binding to KRAS (KRAS–RALGDS; RMC-7977 333.333 nM): 11.4911 and 11.1105 and 10.9221 and 11.2754 and 11.3448 and 11.4972
Cellular nano-BRET of RALGDS (full-length) binding to KRAS (KRAS–RALGDS; RMC-7977 1000.000 nM): 11.0787 and 10.8666 and 11.0137 and 11.1587 and 10.8841 and 10.9076
Kd (KRAS WT): 116 nM
